# From patent US20240360101A1, “PHARMACEUTICAL SALTS OF A CHK-1 INHIBITOR” (SENTINEL ONCOLOGY LIMITED, priority 2021, published 2024)
# Counter-ions that a name gives are not always drawn.
# Experiments:
# [1] = Gravimetric vapour sorption (GVS); assay type: physicochemical; conditions: for GVS weight loss, initial desorption cycle: from 50% RH to 0% RH; for GVS water gain, subsequent sorption cycle: up to 90% RH; for crystalline form (XRPD) after GVS at extremes of humidity: 0% RH and 90% RH, result in words
# Experimental: Sorption isotherms were obtained using a Hiden Isochema moisture sorption analyser (model IGAsorp), controlled by IGAsorp Systems Software V6.50.48. The sample was maintained at a constant temperature (25° C.) by the instrument controls. The humidity was controlled by mixing streams of dry and wet nitrogen, with a total flow of 250 ml·min−. The instrument was verified for relative humidity (RH) content by measuring three calibrated Rotronic salt solutions (10-50-88%). The weight change of the sample was monitored as a function of humidity by a microbalance (accuracy+/−0.005 mg). A defined amount of sample was placed in a tared mesh stainless steel basket under ambient conditions. A full experimental cycle typically consisted of three scans (sorption, desorption and sorption) at a constant temperature (25° C.) and 10% RH intervals over a 0-90% range (60 minutes for each humidity level).
# [2] = Solubility of the salts in biorelevant media; assay type: physicochemical; conditions: for solubility FaSSGF (pH 1.37): Fasted State Simulated Gastric Fluid; for solubility FaSSGF (pH 1.37) / solubility FaSSIF (pH 6.71) / solubility FeSSIF (pH 5.14): 25° C., 24 h, HPLC; for solubility FaSSIF (pH 6.71): Fasted State Simulated Intestinal Fluid; for solubility FeSSIF (pH 5.14): Fed State Simulated Intestinal Fluid; for solubility in FaSSGF (gastric fluid) compared with the free base: result in words
# Experimental: Biorelevant media (DI H2O, FeSSIF, FaSSIF and FaSSGF) (2 mL) was charged. Samples were left to equilibrate (25° C.) over 24 h. Solubility measurements were taken using HPLC (see Method 1 above).
# [3] = Two-week stability (HPLC purity); assay type: physicochemical; conditions: two-week storage at 25° C./60% RH and 40° C./75% RH; result in words
# Experimental: HPLC analysis was carried out on an Agilent 1110/1200 series HPLC system. The column used was an Triart C18; 150×4.6 mm, 3.0 μm particle size (Ex Waters, PN: 186004644). The flow rate was 1.0 mL/min. Mobile phase A was Water:Trifluoroacetic acid (100:0.1%) and mobile phase B was Acetonitrile:Trifluoroacetic acid (100:0.1%). Detection was by UV at 302 nm. The injection volume was 5 μL, column temperature 40° C. and the following gradient was used: […]
# Experimental: Maleate salt pattern B (30 mg) was placed into separate 15 mL type I glass vials. To these vials, a HDPE plastic cap was loosely attached to allow the ingress of moisture. The vials were then placed into ICH rated stability cabinets at 25° C./60% RH and 40° C./75% RH and in cold storage at 2-8° C. Following 2 weeks of storage these samples were removed from the stability cabinets and cold storage and the chemical purity assessed by HPLC (method 2). The relevant data was collected using a wavelength of 302 nm. The samples were prepared in MeCN:water (1:1).
compound,measurement,setting,value
"COc1cc(C2(F)CCN(C)CC2)ccc1-c1cc(Nc2cnc(C#N)cn2)n[nH]1 [Besylate Pattern A, 5-[[5-[4-(4-fluoro-1-methyl-4-piperidyl)-2-methoxy-phenyl]-1H-pyrazol-3-yl]amino]pyrazine-2-carbonitrile]","GVS sharp increase, sorption cycle",[1]; from 40% RH to 60% RH,6%
same,"GVS weight loss, initial desorption cycle",[1]; 25° C.,2.5 wt %
same,"GVS steady decrease, following desorption cycle",[1]; from 90% RH to 30% RH,~3 wt %
same,"GVS water gain, subsequent sorption cycle",[1]; 25° C.,10%
"COc1cc(C2(F)CCN(C)CC2)ccc1-c1cc(Nc2cnc(C#N)cn2)n[nH]1 [Besylate Pattern C, 5-[[5-[4-(4-fluoro-1-methyl-4-piperidyl)-2-methoxy-phenyl]-1H-pyrazol-3-yl]amino]pyrazine-2-carbonitrile]","GVS sharp increase, sorption cycle",[1]; between 0% RH and 20% RH,~2.5 wt %
same,"GVS weight loss, initial desorption cycle",[1]; 25° C.,~3 wt %
same,"GVS water gain, subsequent sorption cycle",[1]; 25° C.,3.75%
"COc1cc(C2(F)CCN(C)CC2)ccc1-c1cc(Nc2cnc(C#N)cn2)n[nH]1 [Maleate Pattern A, 5-[[5-[4-(4-fluoro-1-methyl-4-piperidyl)-2-methoxy-phenyl]-1H-pyrazol-3-yl]amino]pyrazine-2-carbonitrile]",crystalline form (XRPD) after GVS at extremes of humidity,[1],A new pattern was isolated at 0 and 90% RH and was named B
same,"GVS weight gain at 90% RH, following sorption cycles","[1]; 90% RH, following sorption cycles",4 wt %
same,"GVS water loss, subsequent desorption cycle","[1]; down to 0% RH, 25° C.",4%
same,"GVS weight gain, initial sorption cycle","[1]; from 50% RH to 90% RH, 25° C.",1.5 wt %
"COc1cc(C2(F)CCN(C)CC2)ccc1-c1cc(Nc2cnc(C#N)cn2)n[nH]1 [Naphthalene-2-Sulfonate Pattern A, 5-[[5-[4-(4-fluoro-1-methyl-4-piperidyl)-2-methoxy-phenyl]-1H-pyrazol-3-yl]amino]pyrazine-2-carbonitrile]",crystalline form (XRPD) after GVS at extremes of humidity,[1],no change in the crystallinity of the solid occurred at extremes of humidity
same,"GVS weight loss, initial desorption cycle",[1]; 25° C.,1 wt %
same,"GVS water gain, subsequent sorption cycle",[1]; 25° C.,~2.25%
"COc1cc(C2(F)CCN(C)CC2)ccc1-c1cc(Nc2cnc(C#N)cn2)n[nH]1 [Tosylate Pattern A, 5-[[5-[4-(4-fluoro-1-methyl-4-piperidyl)-2-methoxy-phenyl]-1H-pyrazol-3-yl]amino]pyrazine-2-carbonitrile]",crystalline form (XRPD) after GVS at extremes of humidity,[1],No form change at 0% RH and 90% RH
same,"GVS sharp decrease, initial desorption",[1]; from 10% RH to 0% RH,~3 wt %
same,"GVS steady increase, subsequent sorption",[1]; from 10% RH to 90% RH,~1%
same,"GVS weight loss, initial desorption cycle",[1]; 25° C.,3.5 wt %
same,"GVS steady decrease, initial desorption",[1]; from 50% RH to 10% RH,0.5 wt %
same,"GVS sharp water gain, subsequent sorption",[1]; up to 10% RH,~3%
"COc1cc(C2(F)CCN(C)CC2)ccc1-c1cc(Nc2cnc(C#N)cn2)n[nH]1 [besylate pattern B, 5-[[5-[4-(4-fluoro-1-methyl-4-piperidyl)-2-methoxy-phenyl]-1H-pyrazol-3-yl]amino]pyrazine-2-carbonitrile]","GVS weight loss, initial desorption cycle",[1]; 25° C.,1 wt %
same,"GVS water gain, subsequent sorption cycle",[1]; 25° C.,~2.25%
same,Aqueous solubility mg/mL 24 h,,1.18 mg/mL
same,solubility FaSSGF (pH 1.37),[2],0.55 mg/mL
same,solubility FaSSIF (pH 6.71),[2],0.04 mg/mL
same,solubility FeSSIF (pH 5.14),[2],0.57 mg/mL
"COc1cc(C2(F)CCN(C)CC2)ccc1-c1cc(Nc2cnc(C#N)cn2)n[nH]1 [bis-besylate pattern B, 5-[[5-[4-(4-fluoro-1-methyl-4-piperidyl)-2-methoxy-phenyl]-1H-pyrazol-3-yl]amino]pyrazine-2-carbonitrile]",Aqueous solubility mg/mL 24 h,,0.06 mg/mL
"COc1cc(C2(F)CCN(C)CC2)ccc1-c1cc(Nc2cnc(C#N)cn2)n[nH]1 [bis-maleate pattern B, 5-[[5-[4-(4-fluoro-1-methyl-4-piperidyl)-2-methoxy-phenyl]-1H-pyrazol-3-yl]amino]pyrazine-2-carbonitrile]",Aqueous solubility mg/mL 24 h,,0.15 mg/mL
"COc1cc(C2(F)CCN(C)CC2)ccc1-c1cc(Nc2cnc(C#N)cn2)n[nH]1 [hydrochloride pattern C, 5-[[5-[4-(4-fluoro-1-methyl-4-piperidyl)-2-methoxy-phenyl]-1H-pyrazol-3-yl]amino]pyrazine-2-carbonitrile]",Aqueous solubility mg/mL 24 h,,10.37 mg/mL
same,solubility FaSSGF (pH 1.37),[2],8.39 mg/mL
same,solubility FaSSIF (pH 6.71),[2],0.15 mg/mL
same,solubility FeSSIF (pH 5.14),[2],0.61 mg/mL
"COc1cc(C2(F)CCN(C)CC2)ccc1-c1cc(Nc2cnc(C#N)cn2)n[nH]1 [maleate salt, 5-[[5-[4-(4-fluoro-1-methyl-4-piperidyl)-2-methoxy-phenyl]-1H-pyrazol-3-yl]amino]pyrazine-2-carbonitrile maleate]",solubility in FaSSGF (gastric fluid) compared with the free base,"[2]; listed as maleate, maleate",improved solubility over the free base in FaSSGF
same,solubility in FaSSGF (gastric fluid) compared with the free base,[2]; maleate,improved solubility in gastric fluid
same,"physical, polymorphic and chemical stability on storage",[3],remained as a free flowing solid with no evidence of deliquescence or agglomeration and no change in polymorphic form with good chemical stability
"COc1cc(C2(F)CCN(C)CC2)ccc1-c1cc(Nc2cnc(C#N)cn2)n[nH]1 [malonate pattern B, 5-[[5-[4-(4-fluoro-1-methyl-4-piperidyl)-2-methoxy-phenyl]-1H-pyrazol-3-yl]amino]pyrazine-2-carbonitrile]","GVS sharp increase, sorption cycle",[1]; between 30% RH and 40% RH,~3 wt %
same,"GVS weight loss, initial desorption cycle",[1]; 25° C.,5 wt %
same,"GVS water gain, subsequent sorption cycle",[1]; 25° C.,7.5%
same,Aqueous solubility mg/mL 24 h,,7.41 mg/mL
same,solubility FaSSGF (pH 1.37),[2],3.24 mg/mL
same,solubility FeSSIF (pH 5.14),[2],0.27 mg/mL
"COc1cc(C2(F)CCN(C)CC2)ccc1-c1cc(Nc2cnc(C#N)cn2)n[nH]1 [malonate, 5-[[5-[4-(4-fluoro-1-methyl-4-piperidyl)-2-methoxy-phenyl]-1H-pyrazol-3-yl]amino]pyrazine-2-carbonitrile]",solubility in FaSSGF (gastric fluid) compared with the free base,[2],improved solubility over the free base in FaSSGF
"COc1cc(C2(F)CCN(C)CC2)ccc1-c1cc(Nc2cnc(C#N)cn2)n[nH]1 [oxalate pattern A, 5-[[5-[4-(4-fluoro-1-methyl-4-piperidyl)-2-methoxy-phenyl]-1H-pyrazol-3-yl]amino]pyrazine-2-carbonitrile]",Aqueous solubility mg/mL 24 h,,3.16 mg/mL
"COc1cc(C2(F)CCN(C)CC2)ccc1-c1cc(Nc2cnc(C#N)cn2)n[nH]1 [sulphate pattern D, 5-[[5-[4-(4-fluoro-1-methyl-4-piperidyl)-2-methoxy-phenyl]-1H-pyrazol-3-yl]amino]pyrazine-2-carbonitrile]",Aqueous solubility mg/mL 24 h,,1.6 mg/mL
"COc1cc(C2(F)CCN(C)CC2)ccc1-c1cc(Nc2cnc(C#N)cn2)n[nH]1 [tosylate pattern C, 5-[[5-[4-(4-fluoro-1-methyl-4-piperidyl)-2-methoxy-phenyl]-1H-pyrazol-3-yl]amino]pyrazine-2-carbonitrile]",Aqueous solubility mg/mL 24 h,,1.55 mg/mL
same,solubility FaSSGF (pH 1.37),[2],0.32 mg/mL
same,solubility FaSSIF (pH 6.71),[2],0.04 mg/mL
same,solubility FeSSIF (pH 5.14),[2],0.61 mg/mL
